In test [1] the test system is platelets. The test is described as follows: Agonist-induced platelet granule secretion / activation (P-selectin expression by flow cytometry; ADP/ATP release). Type of test: cell-based, human. On the procedure: In order to monitor ATP release, a cocktail of 100 μM SFLLR (synthesized using solid phase Fmoc chemistry on an Applied Biosystems model 430A peptide synthesizer) and 3 mg/ml of luciferin/luciferase (Sigma, St. Louis, Mo.) in a volume of 10 μl is added to 20 μl of PRP. Samples are immediately analyzed for luminescence. Activated platelets supply the ATP necessary for luminescence of the luciferin/luciferase assay. Assays can be performed at high throughput through use of a microtiter plate system, e.g., 384-well plates and a Multidrop 384 (Thermo Labsystems, Helsinki), read with a high density imaging system, e.g., the Tundra system (Imaging Research, St. Catherine's, Ontario).
In order to assay platelet activation by cell surface marker expression, fresh PRP is isolated from donors who have not ingested aspirin for two weeks prior to donation. PRP (40 μl) is incubated with known or suspected inhibitor in DMSO or DMSO alone for 15 min. The sample is then incubated with the indicated agonist (e.g., SFLLR) for 10 min. Following incubation of the sample with the indicated agonist, 10 μl of reaction mixture is transferred to 5 μl of phycoerythrin (PE)-conjugated AC 1.2 anti-P-selectin antibody (for assessment of P-selectin surface expression) or fluorescein isothiocyanate (FITC)-conjugated PAC-1 antibody (for assessment of GPIIbIIIa activation). PBS (500 μl) is added to the sample after a 20 min incubation and the platelets are analyzed immediately by flow cytometry. Flow cytometry can be performed using, for example, a Becton-Dickinson FACSCalibur flow cytometer or its equivalent. Fluorescent channels are set at logarithmic gain. Ten thousand particles are acquired for each sample. A 530/30 band pass filter is used for FL-1 fluorescence. A 585/42 band pass filter is used for FL-2 fluorescence. FITC is measured in the FL-1 channel and PE is measured in the FL-2 channel. Data are analyzed using, for example, CellQuest software on a Macintosh PowerPC, or their equivalents.
Compounds were tested for the ability to inhibit agonist-induced ADP/ATP release from platelet dense granules using a luciferin-luciferase reporter system. In this assay, compounds were incubated with platelet-rich plasma (PRP) for 30 min. A cocktail of the platelet agonist and luciferin-luciferase was then added to the wells. Plates were immediately analyzed using a Tundra high density luminescence imager. […] As a control, compounds were also screened in a platelet-free assay for the ability to inhibit luciferin-luciferase upon exposure to ATP.
Each of the compounds was tested for inhibition of platelet activation in response to the agonists SFLLR (a thrombin mimic), U46619 (a thromboxane A2 mimic), ADP and the phorbol ester PMA.
Compounds were also tested by flow cytometry for the inhibition of SFLLR-induced GPIIbIIIa activation and P-selectin expression. In these experiments, freshly obtained PRP was prepared from healthy volunteers who had not ingested aspirin for two weeks prior to donation. Forty μl of PRP was incubated with inhibitor in DMSO or DMSO alone for 15 min. The sample was then incubated with the indicated agonist for 10 min. Following incubation of the sample with the indicated agonist, 10 μl of reaction mixture was transferred to 5 μl of PE-conjugated AC1.2 anti-P-selectin antibody (for assessment of P-selectin surface expression) or FITC-conjugated PAC-1 antibody (for assessment of GPIIbIIIa activation). PBS (500 μl) was added to the sample after a 20 min incubation and the platelets were analyzed immediately by flow cytometry. Flow cytometry was performed using a Becton-Dickinson FACSCalibur flow cytometer. Fluorescent channels were set at logarithmic gain. Ten thousand particles were acquired for each sample. A 530/30 band pass filter was used for FL-1 fluorescence. A 585/42 band pass filter was used for FL-2 fluorescence. FITC was measured in the FL-1 channel and PE was measured in the FL-2 channel.

The test system of test [2] is platelet accumulation into thrombus. It counts as in vivo. Conditions: bolus 6 mg/kg/5 min then continuous infusion 3 mg/kg/90 min; P<0.01. An excerpt: A preferred animal model involves intravital microscopy of laser-induced thrombi. The method is described by Rosen et al., 2001, Am J Pathol 158, 1613-1622, which is incorporated herein by reference. Minor variations of that method were employed as described below.
Experimental mice are pre-anesthetized and surgically prepared. A tracheal tube is placed to facilitate breathing and the jugular vein is canulated to allow for maintenance of anesthetic and introduction of compound. The cremaster muscle is then exteriorized. The muscle is affixed over a glass slide, allowing illumination from below. A steady drip of a sodium-bicarbonate buffered salt solution is maintained throughout the experiment to keep the exposed muscle moist. Blood flow in the muscle is visualized using a 40× water immersion lens and epi-illuminated with an appropriately filtered light source. Alexa 488-labeled anti-mouse CD41 antibody is injected through the jugular canulus to label platelets in vivo.
Thrombosis is initiated by damaging the vessel wall (of a 30 μm vessel) with a laser pulse from a MicroPoint LASER attached to the microscope. A LASER pulse is delivered, causing damage in an area smaller than 1 μm. The recruitment of platelets to the thrombus is then monitored by the accumulation of (activated) Alexa 488-labeled platelets at the ablation site using fluorescence microscopy, and the process is recorded digitally. The method thus permits in vivo analysis of platelet activation as measured by platelet aggregation and thrombosis.
The degree of embolization in an untreated mouse can be quantified using software for image analysis, e.g., BioQuant True Color Windows (Biometrics, Nashville, Tenn.), as described in Rosen et al., 2001, supra. The software package permits the determination of the “integrated optical density” or IOD of the thrombus.
Using quantitative intravital fluorescence videomicroscopy with high temporal resolution (111 images/second), the effect of PDE3 inhibition on the platelet recruitment into thrombi was directly observed over time. Platelets were fluorescently labeled by infusing rat-anti-mouse CD41 and Alexa 488-anti-rat IgG through a cannulated jugular vein. The cremaster microvasculature was exposed and mapped and suitable arteriole segments were selected for laser-induced injury. A series of control injuries were generated prior to infusion of the inhibitory compound. The power and the number of laser pulses required to generate each thrombus was recorded. Platelet accumulation to the thrombi following laser ablation was recorded using digital videomicroscopy. The thrombus total fluorescence in each frame of the videos was analyzed using Slidebook software for digital videomicroscopy. The pyridazinone compound was then infused. Following a 15 minute incubation, a series of experimental injuries were generated 250 μm proximal, with relationship to blood flow, of the first injury and the resultant thrombi were recorded. The power and the number of pulses required to induce the control thrombus was used to induce the experimental thrombus. The control and experimental thrombi constituting a pair were compared for statistical analysis. The total fluorescence intensity of the thrombi before and after the infusion of pyridazinone compound was recorded.
Images from a representative experiment of the recruitment of fluorescently-labeled […] platelets into a growing thrombus over time is shown in FIG. 9A.

Test [3] deals with mouse platelets.
For test [4], the target named is platelet cGMP-inhibited phosphodiesterase (Homo sapiens, UniProt Q14432). Conditions: Omburo et al., 1995; cited from earlier work.
platelet cGMP-inhibited phosphodiesterase, sequence (Q14432 whole entry): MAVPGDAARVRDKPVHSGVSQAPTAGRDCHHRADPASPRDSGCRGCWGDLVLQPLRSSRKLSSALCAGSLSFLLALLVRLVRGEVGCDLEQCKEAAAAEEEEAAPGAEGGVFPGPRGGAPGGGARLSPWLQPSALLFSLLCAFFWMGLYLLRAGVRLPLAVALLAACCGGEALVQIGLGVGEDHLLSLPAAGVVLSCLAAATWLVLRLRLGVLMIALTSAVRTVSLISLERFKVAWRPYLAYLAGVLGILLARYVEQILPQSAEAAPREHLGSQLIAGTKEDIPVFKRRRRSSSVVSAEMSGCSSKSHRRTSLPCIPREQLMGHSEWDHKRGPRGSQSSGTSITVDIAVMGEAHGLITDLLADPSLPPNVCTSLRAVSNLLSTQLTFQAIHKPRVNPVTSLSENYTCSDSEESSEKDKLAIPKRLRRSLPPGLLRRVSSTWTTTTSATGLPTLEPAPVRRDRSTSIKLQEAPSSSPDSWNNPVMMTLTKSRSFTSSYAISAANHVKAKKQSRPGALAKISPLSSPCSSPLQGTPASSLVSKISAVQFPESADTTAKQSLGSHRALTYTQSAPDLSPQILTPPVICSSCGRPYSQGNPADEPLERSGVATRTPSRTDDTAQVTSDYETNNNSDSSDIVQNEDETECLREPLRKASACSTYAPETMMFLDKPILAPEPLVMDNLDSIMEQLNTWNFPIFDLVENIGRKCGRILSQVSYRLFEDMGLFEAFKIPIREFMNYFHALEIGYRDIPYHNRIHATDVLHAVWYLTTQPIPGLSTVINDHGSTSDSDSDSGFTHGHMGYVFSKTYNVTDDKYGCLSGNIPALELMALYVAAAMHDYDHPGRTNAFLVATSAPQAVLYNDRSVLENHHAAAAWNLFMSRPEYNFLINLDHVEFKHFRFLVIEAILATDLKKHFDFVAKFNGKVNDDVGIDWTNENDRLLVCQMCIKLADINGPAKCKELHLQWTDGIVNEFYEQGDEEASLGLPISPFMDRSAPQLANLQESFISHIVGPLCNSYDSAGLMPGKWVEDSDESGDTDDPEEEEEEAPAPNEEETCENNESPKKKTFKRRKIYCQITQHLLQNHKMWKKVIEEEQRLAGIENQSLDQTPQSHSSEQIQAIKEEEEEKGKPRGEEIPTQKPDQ
For test [5] the following is noted: patients suffering intermittent claudication; cited from earlier work.

Where two headings read alike, the source gives them in different places.

On to “9-methylene-4-(alkyl)-2,3,4,9-tetrahydro-1H-cyclopenta(b)quinoline”, for which the IC50 in test [1] (agonist ADP, read-out: IC50s of inhibition of platelet granule secretion induced with ADP) came out at 650 µM; in test [1] (agonist PMA, read-out: IC50s of inhibition of platelet granule secretion induced with PMA), 300 µM; in test [1] (agonist SFLLR, read-out: IC50s of inhibition of platelet granule secretion induced with SFLLR), 5 µM; in test [1] (agonist U-46619, read-out: IC50s of inhibition of platelet granule secretion induced with U-46619), 400 µM. For the same compound, the “Inhibition of thrombosis following laser-induced injury” value in test [2] is reported as “greater than 80%”. Further, the “Activation of mouse platelets by several platelet agonists” value in test [3] is on record as “inhibits”.
On to `c1cnc2c(c1)ccc1cccnc12` [[1,10]phenanthroline], for which the IC50 in test [4] was roughly 2000 µM.
On to `O=C1CCc2cc(OCCCCc3nnnn3C3CCCCC3)ccc2N1` [cilostazol], for which the “Increase of distance of pain free walking” value in test [5] was “up to 59%”.
